Values after ≈ are worked out from the molar mass of the structure shown.
Assays:
Format in all cases: functional
Enterococcus faecalis [1] = experiment: Antimicrobial activity against Enterococcus faecalis expressing VanB gene clinical isolates by broth microdilution method
Enterococcus faecium [2] = experiment: Antimicrobial activity against Enterococcus faecium clinical isolates by broth microdilution method
Enterococcus faecium [3] = experiment: Antimicrobial activity against Enterococcus faecium clinical isolates assessed as resistant isolates by broth microdilution method
Enterococcus faecium [4] = experiment: Antimicrobial activity against Enterococcus faecium expressing VanA gene clinical isolates assessed as percent susceptible isolates by broth microdilution method
Enterococcus faecium [5] = experiment: Antimicrobial activity against Enterococcus faecium expressing VanA gene clinical isolates assessed as resistant isolates by broth microdilution method
Enterococcus faecium [6] = experiment: Antimicrobial activity against vancomycin-nonsusceptible Enterococcus faecium clinical isolates assessed as resistant isolates by broth microdilution method
Enterococcus faecalis [7] = experiment: Antimicrobial activity against vancomycin-susceptible Enterococcus faecalis clinical isolates assessed as resistant isolates by broth microdilution method
Enterococcus faecalis [8] = experiment: Antimicrobial activity against Enterococcus faecalis clinical isolates by broth microdilution method
Enterococcus faecalis [9] = experiment: Antimicrobial activity against Enterococcus faecalis clinical isolates assessed as percent susceptible isolates by broth microdilution method
Enterococcus faecium [10] = experiment: Antimicrobial activity against Enterococcus faecium expressing VanB gene clinical isolates assessed as percent susceptible isolates by broth microdilution method
Enterococcus faecium [11] = experiment: Antimicrobial activity against Enterococcus faecium clinical isolates assessed as percent susceptible isolates by broth microdilution method
Enterococcus faecium [12] = experiment: Antimicrobial activity against Enterococcus faecium expressing VanB gene clinical isolates by broth microdilution method
Enterococcus faecium [13] = experiment: Antimicrobial activity against Enterococcus faecium expressing VanB gene clinical isolates assessed as resistant isolates by broth microdilution method
Enterococcus faecalis [14] = experiment: Antimicrobial activity against Enterococcus faecalis clinical isolates assessed as resistant isolates by broth microdilution method
Enterococcus faecalis [15] = experiment: Antimicrobial activity against vancomycin-susceptible Enterococcus faecalis clinical isolates assessed as percent susceptible isolates by broth microdilution method
Enterococcus faecalis [16] = experiment: Antimicrobial activity against Enterococcus faecalis expressing VanB gene clinical isolates assessed as percent susceptible isolates by broth microdilution method
Enterococcus faecalis [17] = experiment: Antimicrobial activity against vancomycin-susceptible Enterococcus faecalis clinical isolates by broth microdilution method
Enterococcus faecium [18] = experiment: Antimicrobial activity against vancomycin-nonsusceptible Enterococcus faecium clinical isolates assessed as percent susceptible isolates by broth microdilution method
Enterococcus faecalis [19] = experiment: Antimicrobial activity against Enterococcus faecalis expressing VanA gene clinical isolates by broth microdilution method
Enterococcus faecalis [20] = experiment: Antimicrobial activity against Enterococcus faecalis expressing VanB gene clinical isolates assessed as resistant isolates by broth microdilution method
Enterococcus faecium [21] = experiment: Antimicrobial activity against vancomycin-susceptible Enterococcus faecium clinical isolates assessed as resistant isolates by broth microdilution method
Enterococcus faecalis [22] = experiment: Antimicrobial activity against vancomycin-nonsusceptible Enterococcus faecalis clinical isolates by broth microdilution method
Enterococcus faecalis [23] = experiment: Antimicrobial activity against vancomycin-nonsusceptible Enterococcus faecalis clinical isolates assessed as percent susceptible isolates by broth microdilution method
Enterococcus faecium [24] = experiment: Antimicrobial activity against vancomycin-susceptible Enterococcus faecium clinical isolates by broth microdilution method
Enterococcus faecium [25] = experiment: Antimicrobial activity against vancomycin-nonsusceptible Enterococcus faecium clinical isolates by broth microdilution method
Enterococcus faecalis [26] = experiment: Antimicrobial activity against vancomycin-nonsusceptible Enterococcus faecalis clinical isolates assessed as resistant isolates by broth microdilution method
Enterococcus faecium [27] = experiment: Antimicrobial activity against vancomycin-susceptible Enterococcus faecium clinical isolates assessed as percent susceptible isolates by broth microdilution method
Enterococcus faecalis [28] = experiment: Antimicrobial activity against Enterococcus faecalis expressing VanA gene clinical isolates assessed as percent susceptible isolates by broth microdilution method
Enterococcus faecium [29] = experiment: Antimicrobial activity against Enterococcus faecium expressing VanA gene clinical isolates by broth microdilution method
Enterococcus faecalis [30] = experiment: Antimicrobial activity against Enterococcus faecalis expressing VanA gene clinical isolates assessed as resistant isolates by broth microdilution method
Streptococcus pneumoniae [31] = experiment: Antimicrobial activity against Streptococcus pneumoniae clinical isolates by broth microdilution method
Streptococcus pneumoniae [32] = experiment: Antimicrobial activity against penicillin-intermediate Streptococcus pneumoniae clinical isolates assessed as resistant isolates by broth microdilution method
Streptococcus pneumoniae [33] = experiment: Antimicrobial activity against penicillin-intermediate Streptococcus pneumoniae clinical isolates by broth microdilution method
Streptococcus pneumoniae [34] = experiment: Antimicrobial activity against Streptococcus pneumoniae clinical isolates assessed as resistant isolates by broth microdilution method
Streptococcus pneumoniae [35] = experiment: Antimicrobial activity against penicillin-susceptible Streptococcus pneumoniae clinical isolates by broth microdilution method
Streptococcus pneumoniae [36] = experiment: Antimicrobial activity against penicillin-resistant Streptococcus pneumoniae clinical isolates assessed as percent susceptible isolates by broth microdilution method
Streptococcus pneumoniae [37] = experiment: Antimicrobial activity against Streptococcus pneumoniae clinical isolates assessed as percent susceptible isolates by broth microdilution method
Streptococcus pneumoniae [38] = experiment: Antimicrobial activity against penicillin-susceptible Streptococcus pneumoniae clinical isolates assessed as resistant isolates by broth microdilution method
Streptococcus pneumoniae [39] = experiment: Antimicrobial activity against penicillin-resistant Streptococcus pneumoniae clinical isolates assessed as resistant isolates by broth microdilution method
Streptococcus pneumoniae [40] = experiment: Antimicrobial activity against penicillin-intermediate Streptococcus pneumoniae clinical isolates assessed as percent susceptible isolates by broth microdilution method
Streptococcus pneumoniae [41] = experiment: Antimicrobial activity against penicillin-susceptible Streptococcus pneumoniae clinical isolates assessed as percent susceptible isolates by broth microdilution method
Streptococcus pneumoniae [42] = experiment: Antimicrobial activity against penicillin-resistant Streptococcus pneumoniae clinical isolates by broth microdilution method

With `CC1(C)S[C@@H]2[C@H](NC(=O)[C@H](N)c3ccccc3)C(=O)N2[C@H]1C(=O)O` [AMPICILLIN] the MIC90 (Enterococcus faecalis [1]) was 2 µg/mL (≈ 5.72 µM), the MIC90 (Enterococcus faecium [2]) was > 256 µg/mL and the Activity (Enterococcus faecium [3]) was 87.3%. For the same compound, the Activity (Enterococcus faecium [4]) was 1%, the Activity (Enterococcus faecium [5]) was 99% and the Activity (Enterococcus faecium [6]) was 98.5%. It also gave an Activity (Enterococcus faecalis [7]) of 0.1%, an MIC90 (Enterococcus faecalis [8]) of 1 µg/mL (≈ 2.86 µM) and an Activity (Enterococcus faecalis [9]) of 99.9%. The Activity (Enterococcus faecium [10]) was 3.4%, the Activity (Enterococcus faecium [11]) was 12.7% and the MIC90 (Enterococcus faecium [12]) was > 256 µg/mL. For the same compound, the Activity (Enterococcus faecium [13]) was 96.6%, the Activity (Enterococcus faecalis [14]) was 0.1% and the Activity (Enterococcus faecalis [15]) was 99.9%. It also gave an Activity (Enterococcus faecalis [16]) of 100%, an MIC90 (Enterococcus faecalis [17]) of 1 µg/mL (≈ 2.86 µM) and an Activity (Enterococcus faecium [18]) of 1.5%. It also gave an MIC90 (Enterococcus faecalis [19]) of 2 µg/mL (≈ 5.72 µM), an Activity (Enterococcus faecalis [20]) of 0% and an Activity (Enterococcus faecium [21]) of 72.3%. It also gave an MIC90 (Enterococcus faecalis [22]) of 2 µg/mL (≈ 5.72 µM), an Activity (Enterococcus faecalis [23]) of 100% and an MIC90 (Enterococcus faecium [24]) of 256 µg/mL (≈ 733 µM). For the same compound, the MIC90 (Enterococcus faecium [25]) was > 256 µg/mL, the Activity (Enterococcus faecalis [26]) was 0% and the Activity (Enterococcus faecium [27]) was 27.7%. The Activity (Enterococcus faecalis [28]) was 100%, the MIC90 (Enterococcus faecium [29]) was > 256 µg/mL and the Activity (Enterococcus faecalis [30]) was 0%.
GENTAMICIN was tested, and the MIC (Enterococcus faecalis [1]) was > 500 µg/mL, the MIC90 (Enterococcus faecalis [1]) was > 500 µg/mL and the MIC (Enterococcus faecium [2]) was > 500 µg/mL. The MIC90 (Enterococcus faecium [2]) was > 500 µg/mL, the Activity (Enterococcus faecium [3]) was 31.7% and the Activity (Enterococcus faecium [4]) was 62.9%. It also gave an Activity (Enterococcus faecium [5]) of 37.1%, an Activity (Enterococcus faecium [6]) of 36.7% and an Activity (Enterococcus faecalis [7]) of 32.2%. The MIC (Enterococcus faecalis [8]) was > 500 µg/mL, the MIC90 (Enterococcus faecalis [8]) was > 500 µg/mL and the Activity (Enterococcus faecalis [9]) was 65.4%. For the same compound, the Activity (Enterococcus faecium [10]) was 75.9%, the Activity (Enterococcus faecium [11]) was 68.3% and the MIC (Enterococcus faecium [12]) was > 500 µg/mL. For the same compound, the MIC90 (Enterococcus faecium [12]) was > 500 µg/mL, the Activity (Enterococcus faecium [13]) was 24.1% and the Activity (Enterococcus faecalis [14]) was 34.6%. The Activity (Enterococcus faecalis [15]) was 67.8%, the Activity (Enterococcus faecalis [16]) was 29.4% and the MIC (Enterococcus faecalis [17]) was > 500 µg/mL. The MIC90 (Enterococcus faecalis [17]) was > 500 µg/mL, the Activity (Enterococcus faecium [18]) was 63.3% and the MIC (Enterococcus faecalis [19]) was > 500 µg/mL. For the same compound, the MIC90 (Enterococcus faecalis [19]) was > 500 µg/mL, the Activity (Enterococcus faecalis [20]) was 70.6% and the Activity (Enterococcus faecium [21]) was 25.1%. For the same compound, the MIC (Enterococcus faecalis [22]) was > 500 µg/mL, the MIC90 (Enterococcus faecalis [22]) was > 500 µg/mL and the Activity (Enterococcus faecalis [23]) was 19.5%. For the same compound, the MIC (Enterococcus faecium [24]) was > 500 µg/mL, the MIC90 (Enterococcus faecium [24]) was > 500 µg/mL and the MIC (Enterococcus faecium [25]) was > 500 µg/mL. For the same compound, the MIC90 (Enterococcus faecium [25]) was > 500 µg/mL, the Activity (Enterococcus faecalis [26]) was 80.5% and the Activity (Enterococcus faecium [27]) was 74.9%. For the same compound, the Activity (Enterococcus faecalis [28]) was 16.9%, the MIC (Enterococcus faecium [29]) was > 500 µg/mL and the MIC90 (Enterococcus faecium [29]) was > 500 µg/mL. It also gave an Activity (Enterococcus faecalis [30]) of 83.1%.
`CO/N=C(\C(=O)N[C@@H]1C(=O)N2C(C(=O)O)=C(CSc3nc(=O)c(O)nn3C)CS[C@H]12)c1csc(N)n1` [CEFTRIAXONE] was tested, and the MIC90 (Streptococcus pneumoniae [31]) was 1 µg/mL (≈ 1.8 µM), the “Percent of isolates resistant” value (Streptococcus pneumoniae [32]) was 0.5% and the MIC90 (Streptococcus pneumoniae [33]) was 0.5 µg/mL (≈ 0.902 µM). It also gave a Resistant isolates (Streptococcus pneumoniae [34]) of 1.2%, an MIC90 (Streptococcus pneumoniae [35]) of 0.03 µg/mL (≈ 0.0541 µM) and an Activity (Streptococcus pneumoniae [36]) of 80.4%. For the same compound, the Activity (Streptococcus pneumoniae [37]) was 97%, the “Percent of isolates resistant” value (Streptococcus pneumoniae [38]) was 0% and the “Percent of isolates resistant” value (Streptococcus pneumoniae [39]) was 7.4%. For the same compound, the Activity (Streptococcus pneumoniae [40]) was 99.5%, the Activity (Streptococcus pneumoniae [41]) was 100% and the MIC90 (Streptococcus pneumoniae [42]) was 2 µg/mL (≈ 3.61 µM).

Source: ChEMBL document CHEMBL1649268, “Comparative in vitro activity profile of oritavancin against recent gram-positive clinical isolates” (2009)
